The text below walks through data of PubChem BioAssay AID1552 (Sanford-Burnham Center for Chemical Genomics, 2009).

The target in the experiment is Ubiquitin-conjugating enzyme E2 N (Homo sapiens) (UniProt P61088). The experiment in a line: UBE2N binders by NMR, biophysical, purified protein (AID 1552). To be noted: NMR binding to purified UBE2N.

Activity calls are given as the source filed them. No rule for the calls is given here.

Sequence of Ubiquitin-conjugating enzyme E2 N (Homo sapiens) (P61088 whole entry, looked up): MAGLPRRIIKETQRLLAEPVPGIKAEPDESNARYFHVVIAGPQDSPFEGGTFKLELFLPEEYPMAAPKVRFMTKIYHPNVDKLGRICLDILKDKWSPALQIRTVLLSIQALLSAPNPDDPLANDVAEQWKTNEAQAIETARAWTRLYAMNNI

On to `COC(=O)C1=CCCN(C)C1`, for which the Kd is > 4 mM (inactive). In the case of `Nc1nncn1C(=O)c1c(Cl)cccc1Cl`, the Kd was > 4 mM (inactive). For `COc1cc([C@@H]2c3cc4c(cc3[C@H](OC(C)=O)[C@H]3COC(=O)[C@H]23)OCO4)cc(OC)c1OC` the value was > 4 mM (inactive); for `CC1=C(C(N)=O)C(c2ccccc2)NC(=O)N1` (stereo unspecified), > 4 mM (inactive). For the compound `O=C(CC1NCCNC1=O)Nc1ccccc1` (stereo unspecified), the Kd is > 4 mM (inactive).

For `CN1CCC2(CC1)CC1CC3C=CC1(CN2)O3` (stereo unspecified), the Kd is > 4 mM (inactive).

On to `CCOC(=O)Cn1cnc2c1c(=O)[nH]c(=O)n2C`, for which the Kd was > 4 mM (inactive). For the compound `CC(N)C(=O)c1ccco1` (stereo unspecified), the Kd was > 4 mM (inactive). As for `NC1=C([N+](=O)[O-])C(=O)c2ccccc21`, the Kd is > 4 mM (inactive).

Take `Cn1nc(-c2cccs2)cc1N`: the Kd was > 4 mM (inactive).

For `O=C(O)CCC(=O)Nc1ccccc1F`, the Kd was > 4 mM (inactive). `O=C(c1ccccc1)c1ccccc1C(=O)N1CCOCC1`: the Kd was > 4 mM (inactive).

For the compound `C[C@@H]1CCC2[C@](C)(CO)[C@@H](O)CC[C@]2(C)[C@@]12CC[C@@](CO)(CCO)O2` (stereo partly specified), the Kd is > 4 mM (inactive). On to `OCc1sccc1-n1cccc1`, for which the Kd was > 4 mM (inactive). Take `CC(=O)Nc1ccc(S(N)(=O)=O)cc1`: the Kd was > 4 mM (inactive). In the case of `COCCn1c(C)cc(O)cc1=O`, the Kd is > 4 mM (inactive).

As for `CSc1nc(C)c(Oc2ccccc2)c(=O)n1C`, the Kd is > 4 mM (inactive).

For the compound `O=C(c1cnsn1)N1CCN(c2ccccn2)CC1`, the Kd is > 4 mM (inactive). For `COc1ccccc1C(=O)Nc1ccccn1` the value was > 4 mM (inactive); for `O=C(O)c1ccc(CSc2ncn[nH]2)cc1`, > 4 mM (inactive); for `CNC(=S)Nc1cccc(C(=O)O)c1`, > 4 mM (inactive).

On to `Cc1ccccc1C(=O)Nn1cnnc1`, for which the Kd is > 4 mM (inactive). Under `O=S(=O)(c1cccc2cccnc12)N1CCOCC1` stands > 4 mM (inactive). As to `NC1C2CC3CC1CC(O)(C3)C2` (stereo unspecified), the Kd was > 4 mM (inactive). With `Cc1cc(C(=O)Nc2sc3c(c2C#N)CCC3)no1`, the Kd was > 4 mM (inactive).

Take `COc1ccc(C2=CC(=O)C=CC2=O)cc1`: the Kd is > 4 mM (inactive).

`CCC(/C=C/[C@@H](C)[C@H]1CCC2C3CC=C4C[C@@H](O)CC[C@]4(C)C3CC[C@@]21C)C(C)C` (stereo partly specified): the Kd is > 4 mM (inactive). For `CCOC(=O)c1csc(C)n1` the value was > 4 mM (inactive). In the case of `CC(C)CC(=O)NC1CCSC1=O` (stereo unspecified), the Kd is > 4 mM (inactive). For `Clc1ccccc1OCc1nc(-c2ccccn2)no1` the value was > 4 mM (inactive); for `OC[C@@H]1CCCN2CCCC[C@H]12`, > 4 mM (inactive). For `COc1cc(C(=S)N2CCC(C(N)=O)CC2)ccc1O` the value was > 4 mM (inactive); for `Cc1cc(C)n2nc(C(=O)Nc3cccnc3)nc2n1`, > 4 mM (inactive).

Turning to `CNC(=O)c1cc2cccc(OC)c2oc1=O`, the Kd is > 4 mM (inactive).

Regarding `COc1cccc(Oc2ccc(N)cn2)c1`, the Kd is > 4 mM (inactive). Under `CCn1c(-c2c[nH]c3ccccc23)n[nH]c1=S` stands > 4 mM (inactive); under `CC(=O)Nc1ccc(N(C)C(C)=O)cc1`, > 4 mM (inactive). Under `CN1CCn2c1nc(N1CCOCC1)nc2=O` stands > 4 mM (inactive); under `O=C(O[C@@H]1Cc2c(O)cc(O)cc2O[C@@H]1c1cc(O)c(O)c(O)c1-c1c([C@H]2Oc3cc(O)cc(O)c3C[C@H]2O)cc(O)c(O)c1O)c1cc(O)c(O)c(O)c1`, > 4 mM (inactive). Under `NC(=O)CSc1ccc2nnc(-c3cccs3)n2n1` stands > 4 mM (inactive); under `Oc1ccc(C2SCCS2)cc1`, > 4 mM (inactive).

As for `COc1ccc2cnn(-c3ccccc3)c(=O)c2c1OC`, the Kd was > 4 mM (inactive). For `Cc1nnc(NCCO)[nH]c1=O` the value was > 4 mM (inactive). `Cc1ccc(/C=C/C(=O)O)cc1S(=O)(=O)NCCO`: the Kd is > 4 mM (inactive). Take `O=C(O)c1cc(=O)c2cccc(O)c2[nH]1`: the Kd was > 4 mM (inactive).

As for `N=Nc1c(O)[nH]c2ccccc12`, the Kd was > 4 mM (inactive). Take `NC(=O)CSc1ccc2nnc(-c3ccccc3)n2n1`: the Kd is > 4 mM (inactive). As for `OCc1ccc(CN2CCOCC2)cc1`, the Kd is > 4 mM (inactive). Under `c1ccc(Cn2c(Nn3cnnc3)nc3ccccc32)cc1` stands > 4 mM (inactive); under `NC(=O)N1CCc2ccccc21`, > 4 mM (inactive). In the case of `c1ccc(-c2nnc(CNCc3ccco3)o2)cc1`, the Kd is > 4 mM (inactive). `CC1=NN2C(=N)CC(=O)N=C2S1`: the Kd is > 4 mM (inactive). For `O=C(NCc1cccs1)c1nc2ncccn2n1` the value was > 4 mM (inactive). For `COC1=CC(=O)C[C@@H](C)[C@]12Oc1c(Cl)c(OC)cc(OC)c1C2=O` the value was > 4 mM (inactive); for `Cn1c(=O)c2cn3ncccc3c2n(C)c1=O`, > 4 mM (inactive); for `NCCC(=O)N[C@@H](Cc1cnc[nH]1)C(=O)O`, > 4 mM (inactive). As to `c1ccc(CCc2nc(-c3ccccn3)no2)cc1`, the Kd was > 4 mM (inactive). For `NC(=O)C1CCN(S(=O)(=O)c2ccccc2)CC1` the value was > 4 mM (inactive); for `Cc1ccc(O)c(NC(=O)c2ccco2)c1`, > 4 mM (inactive).

Turning to `Cc1nn2c(=O)nc3sc4c(c3c2[nH]c1=O)CCCC4`, the Kd was > 4 mM (inactive). As to `CC(=O)c1ccc(Cc2cnc(N)s2)cc1`, the Kd is > 4 mM (inactive).

With `O=C1CNC(=O)N1c1cccc(Cl)c1`, the Kd was > 4 mM (inactive).

`CC(=O)Cc1nsc(NC(=O)c2ccc(C)cc2)n1`: the Kd was > 4 mM (inactive). Regarding `O=C1CSC(=O)N1CNc1ccccc1`, the Kd is > 4 mM (inactive). As to `COCC(=O)Nc1cccc2ccccc12`, the Kd was > 4 mM (inactive). Under `Cc1nc2ccc(NC(=O)N3CCOCC3)cc2s1` stands > 4 mM (inactive). On to `NC(=O)CSc1nnc2ccc3ccccc3n12`, for which the Kd was > 4 mM (inactive). Turning to `CNC(=O)Cn1c(=O)n(C)c2ccccc21`, the Kd is > 4 mM (inactive). As to `CC(C)NS(=O)(=O)c1ccc(N)cc1`, the Kd is > 4 mM (inactive). Regarding `N=C1/C(=C\c2ccco2)C(=O)N=C2SC=NN12`, the Kd is > 4 mM (inactive). For `Cn1nnc2cc(C(=O)O)ccc21` the value was > 4 mM (inactive); for `OCC1CNc2ccccc2O1` (stereo unspecified), > 4 mM (inactive).

As to `NC(=O)c1cc(N)ccc1N1CCCCC1`, the Kd is > 4 mM (inactive). As for `NC(=O)NC1C=CS(=O)(=O)C1` (stereo unspecified), the Kd is > 4 mM (inactive). Regarding `CN(C)S(=O)(=O)c1ccc(NC=O)cc1`, the Kd is > 4 mM (inactive).

Take `Cc1cc(C)n(CCC(=O)O)n1`: the Kd is > 4 mM (inactive).

In general, Kd refers to the concentration at which binding is half-saturated.
